The text below walks through data of EP4813991A1 (iLeadBMS Co., Ltd., priority 2023, dated 2025).

SMILES strings stand for the structures. Read-outs that look alike come from different tables or passages of the source.

For one assay, the system named is AGS cells. Put plainly: Gastric cancer cell proliferation inhibitory activity (CellTiter Glo), AGS. The format is cell-based. As to conditions: Homo sapiens, AGS, 72 hours, relative IC50. As to the method:
(§1) Experiments were performed using four types of gastric cancer cell lines (AGS, SNU-1, KATO-III, and MKN45) to measure the cell proliferation inhibitory ability of each Example compound. For AGS cells, 90 µL of cell suspension was dispensed into a 96-well plate using F-12K (Gibco) medium containing 10 % FBS, followed by incubation in a cell incubator at 37 °C and 5 % CO2. For SNU-1 and MKN45 cells, 90 µL of cell suspension was dispensed into a 96-well plate using RPMI1640 (Gibco) medium containing 10 % FBS, followed by incubation in a cell incubator at 37 °C and 5 % CO2. For KATO-III cells, 90 uL of cell suspension was dispensed into a 96-well plate using IMDM (Gibco) medium containing 10 % FBS, followed by incubation in a cell incubator at 37 °C and 5 % CO2. The next day, each Example compound dissolved and diluted in DMSO across 9 concentration ranges and a DMSO control group were added at 10 µL to each 96-well plate and treated for 72 hours. After completion of the compound treatment, 100 µL of CellTiter Glo (Promega) reagent was added to each well of the 96-well plate, followed by shaking for 10 minutes and standing at room temperature for 10 minutes. Luminescence signals were measured after inserting the 96-well plate into an Envision plate reader (PerkinElmer). Relative IC50 values were calculated by fitting a dose-response curve using XLfit (IDBS Ltd) software.
(§2) The gastric cancer cell proliferation inhibitory activities of the Example compounds measured by the method described above were evaluated according to the following criteria, and the results are presented in Table 16.

Assay [1] relates to MDA-MB-231 breast cancer cells. Put plainly: Proliferation inhibitory activity assay against MDA-MB-231 breast cancer cells. Format: cell-based. The note with it: Homo sapiens, 72 hours, CellTiter Glo, relative IC50. In a few lines:
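Cells grown in L-15 with 10% FBS at 37 °C, 0% CO2, then exposed next day to compounds at 9 concentrations (DMSO vehicle) for 72 h. Viability read by CellTiter Glo luminescence; relative IC50 from dose-response curve fit.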

For another assay, the target named is CDK13 (Homo sapiens, UniProt Q14004). Put plainly: CDK13 kinase inhibitory activity assay (33P-ATP filter binding). Format: biochemical. In a few lines: (§3)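 Compound in 9 concentrations pre-incubated 20 min with kinase and substrate, then ^33P-γ-ATP added and reacted 120 min at room temperature. Phosphorylated substrate captured on filter, washed with 0.75 % phosphoric acid and counted; activity as % of DMSO control, IC50 fitted.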

Another assay addresses CDK2 (Homo sapiens, UniProt P24941). Put plainly: CDK2 kinase inhibitory activity assay and selectivity over CDK12. Format: biochemical. As to conditions: for IC50: kinase reaction 120 minutes, 33P-gamma-ATP; for CDK2/CDK12: ratio of CDK2 IC50 to CDK12 IC50. As to the method: (§4) Before initiating the CDK1 and CDK2 kinase reactions, each Example compound was dissolved and diluted in DMSO as a solvent across 9 concentration ranges at room temperature. The diluted solutions were then incubated with a mixture of kinase and substrate (and cofactors, if required) for 20 minutes. Next, radioisotope-labeled ATP (^33P-gamma-ATP) was added to proceed with the kinase reaction at room temperature for 120 minutes. After the reaction was completed, the reaction mixture was transferred to a filter paper that binds the radioisotope-labeled catalytic product (^33P-substrate). Unreacted ^33P-ATP was removed by washing with 0.75 % phosphoric acid, and then the radioactive phosphorylated substrate remaining on the filter paper was measured. Kinase activity data were expressed as a percentage of the kinase activity remaining in the test sample compared to a DMSO control group. The half-maximal inhibitory concentration (IC50) for each kinase was calculated using Prism software.
(§5) The CDK1 and CDK2 kinase inhibitory activities of the Example compounds measured by the above method were evaluated according to the following criteria, and the results are presented in Table 14.

The next assay relates to KATO-III cells. Put plainly: Gastric cancer cell proliferation inhibitory activity (CellTiter Glo), KATO-III. As to conditions: Homo sapiens, KATO III, 72 hours, relative IC50. Format: cell-based. As to the method:
as §1, §2

The test system of another assay is HCC70 cells. The assay can be described thus: Breast cancer cell proliferation inhibitory activity, HCC70. Format: cell-based. As to conditions: Homo sapiens, 72 hours, CellTiter Glo, relative IC50. As to the method: Experiments were conducted using three types of breast cancer cell lines to measure the cell proliferation inhibitory ability of each Example compound. For HCC70 cells, 100 µL of cell suspension was dispensed into a 96-well plate using RPMI1640 (Invitrogen) medium containing 10 % FBS, followed by incubation in a cell incubator at 37 °C and 5 % CO2. For BT-20 cells, 100 µL of cell suspension was dispensed into a 96-well plate using EMEM (Invitrogen) medium containing 10 % FBS, followed by incubation in a cell incubator at 37 °C and 5 % CO2. For MDA-MB-436 cells, 100 µL of cell suspension was dispensed into a 96-well plate using L-15 (Invitrogen) medium containing 10 % FBS, followed by incubation in a cell incubator at 37 °C and 0 % CO2. The next day, each Example compound dissolved and diluted in DMSO across 9 concentration ranges and a DMSO control group were treated on the cells for 72 hours. After completion of the compound treatment, 100 µL of CellTiter Glo (Promega) reagent was added to each well of the 96-wellplate, followed by shaking for 10 minutes and standing at room temperature for 10 minutes. After inserting the 96-well plate into an Envision plate reader (PerkinElmer), luminescence signals were measured. Relative IC50 values were calculated by fitting a dose-response curve using XL fit (IDBS Ltd) software.
The breast cancer cell proliferation inhibitory activities of the Example compounds measured by the method described above were evaluated according to the following criteria, and the results are presented in Table 15.

Another assay deals with CDK12 (Homo sapiens, UniProt Q9NYV4). The assay can be described thus: CDK12 kinase inhibitory activity assay (33P-ATP filter binding). Format: biochemical. The procedure, abridged: as §3
Another assay deals with CDK1 (Homo sapiens, UniProt P06493). The assay can be described thus: CDK1 kinase inhibitory activity assay and selectivity over CDK12. Format: biochemical. The note with it: for IC50: kinase reaction 120 minutes, 33P-gamma-ATP. As to the method:
as §4, §5

[2] abbreviates: kinase reaction 120 minutes, 33P-gamma-ATP, read-out: CDK12 IC50.
Setting [3] is: kinase reaction 120 minutes, 33P-gamma-ATP, read-out: CDK13 IC50.

Sequence of CDK1 (P06493 whole entry, species assumed): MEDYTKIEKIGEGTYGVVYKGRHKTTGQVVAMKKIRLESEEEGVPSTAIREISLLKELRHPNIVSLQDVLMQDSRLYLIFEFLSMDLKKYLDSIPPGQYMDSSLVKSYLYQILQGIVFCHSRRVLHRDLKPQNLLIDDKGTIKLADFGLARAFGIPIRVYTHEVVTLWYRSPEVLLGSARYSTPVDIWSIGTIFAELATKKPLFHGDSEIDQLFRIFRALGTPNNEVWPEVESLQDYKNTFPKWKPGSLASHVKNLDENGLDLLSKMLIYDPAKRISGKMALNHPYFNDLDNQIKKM
Sequence of CDK1 (P14635 whole entry partner, species assumed): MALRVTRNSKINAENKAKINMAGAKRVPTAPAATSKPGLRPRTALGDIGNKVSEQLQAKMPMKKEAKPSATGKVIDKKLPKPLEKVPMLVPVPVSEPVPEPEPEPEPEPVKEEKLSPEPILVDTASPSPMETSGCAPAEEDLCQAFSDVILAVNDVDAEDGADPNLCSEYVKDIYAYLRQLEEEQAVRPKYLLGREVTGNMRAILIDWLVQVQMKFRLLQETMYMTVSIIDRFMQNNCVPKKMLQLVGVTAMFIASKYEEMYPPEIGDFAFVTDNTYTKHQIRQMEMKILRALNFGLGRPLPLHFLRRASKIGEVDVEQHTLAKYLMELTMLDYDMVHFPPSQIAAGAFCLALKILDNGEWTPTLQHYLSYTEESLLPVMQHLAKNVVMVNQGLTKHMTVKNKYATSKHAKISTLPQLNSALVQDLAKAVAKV
Sequence of CDK12 (Q9NYV4 whole entry, species assumed): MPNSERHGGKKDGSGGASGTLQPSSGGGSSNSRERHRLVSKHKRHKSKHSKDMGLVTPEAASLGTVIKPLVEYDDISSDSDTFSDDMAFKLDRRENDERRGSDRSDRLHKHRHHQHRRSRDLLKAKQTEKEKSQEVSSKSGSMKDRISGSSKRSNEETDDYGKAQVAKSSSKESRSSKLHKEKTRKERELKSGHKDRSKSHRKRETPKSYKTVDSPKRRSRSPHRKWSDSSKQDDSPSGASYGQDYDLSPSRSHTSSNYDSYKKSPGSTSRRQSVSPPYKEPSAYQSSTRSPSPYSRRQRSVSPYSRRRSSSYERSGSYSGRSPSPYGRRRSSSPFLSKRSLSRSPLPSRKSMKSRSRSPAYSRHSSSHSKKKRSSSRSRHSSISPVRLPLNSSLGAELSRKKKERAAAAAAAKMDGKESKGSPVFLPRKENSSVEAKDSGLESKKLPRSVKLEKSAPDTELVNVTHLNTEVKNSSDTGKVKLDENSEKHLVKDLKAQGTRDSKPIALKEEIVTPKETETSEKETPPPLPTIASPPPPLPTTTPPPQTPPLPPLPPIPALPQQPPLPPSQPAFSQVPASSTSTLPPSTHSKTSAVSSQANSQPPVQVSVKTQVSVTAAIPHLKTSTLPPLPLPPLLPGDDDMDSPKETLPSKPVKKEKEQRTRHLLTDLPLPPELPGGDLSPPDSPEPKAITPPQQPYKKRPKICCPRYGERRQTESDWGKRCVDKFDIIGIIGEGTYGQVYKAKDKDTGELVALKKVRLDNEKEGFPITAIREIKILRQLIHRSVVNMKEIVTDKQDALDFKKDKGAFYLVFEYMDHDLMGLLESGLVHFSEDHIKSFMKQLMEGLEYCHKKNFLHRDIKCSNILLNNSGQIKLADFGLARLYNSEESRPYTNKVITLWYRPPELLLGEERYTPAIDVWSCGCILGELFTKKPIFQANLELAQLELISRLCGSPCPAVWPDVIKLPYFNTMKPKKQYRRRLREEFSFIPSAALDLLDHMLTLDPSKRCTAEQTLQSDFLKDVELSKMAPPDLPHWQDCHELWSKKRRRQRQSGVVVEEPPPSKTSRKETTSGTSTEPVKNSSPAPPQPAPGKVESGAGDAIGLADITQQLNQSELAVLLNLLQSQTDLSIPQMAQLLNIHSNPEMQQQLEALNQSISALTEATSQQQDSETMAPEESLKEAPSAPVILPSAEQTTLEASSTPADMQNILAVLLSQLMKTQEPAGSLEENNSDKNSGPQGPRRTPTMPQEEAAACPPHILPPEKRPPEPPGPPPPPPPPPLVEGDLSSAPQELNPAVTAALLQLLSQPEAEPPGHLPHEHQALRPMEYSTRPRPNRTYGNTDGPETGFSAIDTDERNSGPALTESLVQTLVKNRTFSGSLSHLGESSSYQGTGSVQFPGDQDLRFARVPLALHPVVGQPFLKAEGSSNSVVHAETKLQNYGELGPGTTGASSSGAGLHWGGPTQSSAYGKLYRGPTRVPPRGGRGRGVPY
Sequence of CDK12 (O75909 whole entry partner, species assumed): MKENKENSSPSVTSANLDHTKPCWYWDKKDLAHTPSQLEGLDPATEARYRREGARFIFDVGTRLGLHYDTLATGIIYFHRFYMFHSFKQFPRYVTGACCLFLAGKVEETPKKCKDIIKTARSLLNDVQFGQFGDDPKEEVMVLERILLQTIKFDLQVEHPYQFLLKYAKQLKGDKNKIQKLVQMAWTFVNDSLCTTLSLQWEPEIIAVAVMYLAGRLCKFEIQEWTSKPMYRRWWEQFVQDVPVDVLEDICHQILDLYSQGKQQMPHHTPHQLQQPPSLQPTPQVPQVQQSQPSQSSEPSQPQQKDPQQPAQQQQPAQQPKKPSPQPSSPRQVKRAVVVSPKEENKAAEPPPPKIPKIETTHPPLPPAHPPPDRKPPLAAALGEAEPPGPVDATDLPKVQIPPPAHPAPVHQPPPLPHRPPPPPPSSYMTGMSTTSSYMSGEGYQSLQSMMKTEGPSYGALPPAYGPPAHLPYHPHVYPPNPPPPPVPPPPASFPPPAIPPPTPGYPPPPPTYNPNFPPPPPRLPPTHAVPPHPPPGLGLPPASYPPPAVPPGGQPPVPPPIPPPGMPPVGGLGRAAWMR
Sequence of CDK13 (Q14004 whole entry, species assumed): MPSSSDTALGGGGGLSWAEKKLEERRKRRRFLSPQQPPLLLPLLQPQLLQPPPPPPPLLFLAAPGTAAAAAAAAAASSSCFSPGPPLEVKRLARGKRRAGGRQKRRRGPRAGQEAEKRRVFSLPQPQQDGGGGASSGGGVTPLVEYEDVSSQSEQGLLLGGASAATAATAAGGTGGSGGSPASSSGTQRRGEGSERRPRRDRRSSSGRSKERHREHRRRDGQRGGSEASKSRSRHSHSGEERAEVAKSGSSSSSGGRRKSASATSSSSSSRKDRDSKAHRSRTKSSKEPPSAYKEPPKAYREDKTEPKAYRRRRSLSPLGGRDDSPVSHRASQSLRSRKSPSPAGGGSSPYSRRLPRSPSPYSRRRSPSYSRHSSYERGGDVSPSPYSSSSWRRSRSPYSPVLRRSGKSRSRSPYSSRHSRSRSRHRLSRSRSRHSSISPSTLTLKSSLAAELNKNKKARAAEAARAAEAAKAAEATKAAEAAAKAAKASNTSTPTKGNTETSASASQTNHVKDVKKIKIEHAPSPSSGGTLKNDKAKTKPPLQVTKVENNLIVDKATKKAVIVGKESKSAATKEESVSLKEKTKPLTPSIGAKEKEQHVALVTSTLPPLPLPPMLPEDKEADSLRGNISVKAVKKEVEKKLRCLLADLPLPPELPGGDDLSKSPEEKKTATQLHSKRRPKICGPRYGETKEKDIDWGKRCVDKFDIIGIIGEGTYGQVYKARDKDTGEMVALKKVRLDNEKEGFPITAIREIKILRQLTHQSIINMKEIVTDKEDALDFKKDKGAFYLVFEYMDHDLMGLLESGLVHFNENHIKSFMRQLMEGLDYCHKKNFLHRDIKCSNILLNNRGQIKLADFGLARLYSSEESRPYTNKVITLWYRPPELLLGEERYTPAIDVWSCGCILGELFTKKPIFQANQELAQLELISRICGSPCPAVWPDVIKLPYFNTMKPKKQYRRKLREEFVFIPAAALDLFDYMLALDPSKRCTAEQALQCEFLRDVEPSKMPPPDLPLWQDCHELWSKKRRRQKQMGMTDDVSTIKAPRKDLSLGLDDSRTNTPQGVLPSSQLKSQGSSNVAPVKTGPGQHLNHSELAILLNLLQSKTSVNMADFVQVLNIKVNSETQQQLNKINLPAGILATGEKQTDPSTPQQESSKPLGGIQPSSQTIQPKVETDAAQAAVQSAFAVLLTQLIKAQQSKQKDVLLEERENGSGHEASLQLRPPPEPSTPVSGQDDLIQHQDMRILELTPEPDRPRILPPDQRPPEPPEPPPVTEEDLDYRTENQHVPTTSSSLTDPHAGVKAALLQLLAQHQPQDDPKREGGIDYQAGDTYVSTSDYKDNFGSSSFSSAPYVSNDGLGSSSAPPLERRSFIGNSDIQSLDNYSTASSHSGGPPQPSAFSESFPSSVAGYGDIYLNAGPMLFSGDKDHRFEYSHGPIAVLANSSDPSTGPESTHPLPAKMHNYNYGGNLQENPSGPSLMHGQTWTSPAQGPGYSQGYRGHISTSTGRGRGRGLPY
Sequence of CDK13 (O75909 whole entry partner, species assumed): as the sequence (O75909 whole entry partner, species assumed) above

Turning to `CN1CCN(c2cc(NCc3nc4ccc(F)c(F)c4[nH]3)c3ncc(C(F)(F)F)n3n2)CC1` [Example 8, N-((6,7-difluoro-1H-benzo[d]imidazol-2-yl)methyl)-6-(4-methylpiperazin-1-yl)-3-(trifluoromethyl)imidazo[1,2-b]pyridazin-8-amine], the concentration for half-maximal inhibition (IC50) with AGS cells was no more than 200 nM; in assay [1] it was no more than 50 nM; at CDK13 it was less than 100 nM; against CDK2, greater than 1000 nM; in the assay with KATO-III cells, no more than 200 nM; with HCC70 cells, no more than 50 nM. Also, the IC50 is less than 100 nM at CDK12 (setting [2]) and greater than 1000 nM against CDK1. Moreover, the CDK2/CDK12 entry at CDK2 is listed as “B (100-fold < CDK1/CDK12 or CDK2/CDK12 ≤ 500-fold)”. In addition, the CDK1/CDK12 result on CDK1 (ratio of CDK1 IC50 to CDK12 IC50) is “A (CDK1/CDK12 or CDK2/CDK12 > 500-fold)”.
With `CN1CCN(c2cc(NCc3nc4cc(Cl)c(Cl)cc4[nH]3)c3ncc(C(F)(F)F)n3n2)CC1` [Example 29, N-((5,6-dichloro-1H-benzo[d]imidazol-2-yl)methyl)-6-(4-methylpiperazin-1-yl)-3-(trifluoromethyl)imidazo[1,2-b]pyridazin-8-amine], the IC50 is no more than 200 nM in the assay on AGS cells; no more than 50 nM in assay [1]; less than 100 nM at CDK13 (setting [3]); greater than 1000 nM against CDK2; no more than 200 nM in the assay with KATO-III cells; no more than 50 nM in the assay on HCC70 cells. Further, the concentration for half-maximal inhibition (IC50) on CDK12 (setting [2]) was less than 100 nM; at CDK1 it was greater than 1000 nM.
As to `N#CC1CN(c2cc(NCc3nc4cc(Cl)c(Cl)cc4[nH]3)c3ncc(C(F)(F)F)n3n2)C1` [Example 30, 1-(8-(((5,6-dichloro-1H-benzol[d]imidazol-2-yl)methyl)amino)-3-(trifluoromethyl)imidazo[1,2-b]pyridazin-6-yl)azetidine-3-carbonitrile], the IC50 is no more than 200 nM in the assay on AGS cells; no more than 50 nM in assay [1]; less than 100 nM at CDK13 (setting [3]); greater than 1000 nM against CDK2; no more than 200 nM with KATO-III cells; no more than 50 nM with HCC70 cells. Besides, the IC50 is 100 to 500 nM at CDK12 and greater than 1000 nM on CDK1. Moreover, on CDK2, the CDK2/CDK12 entry is given as “C (CDK1/CDK12 or CDK2/CDK12 ≤ 100-fold)”.
With `Nc1ncc(-c2cc(NCc3nc4cc(Cl)c(Cl)cc4[nH]3)c3ncc(C(F)(F)F)n3n2)cn1` [Example 40], the IC50 in assay [1] is no more than 50 nM; at CDK13 (setting [3]), less than 100 nM; against CDK2, greater than 1000 nM; on CDK12 it was less than 100 nM; at CDK1, greater than 1000 nM.
